Publication PMC8800111 (The Journal of Biological Chemistry, 2021)

Assays:
Format in all cases: cell-based
[1] = biological target: proteins of U3A human fibrosarcoma cells (4462 proteins detected) (Homo sapiens, UniProt P46060); conditions: protein RANGAP1; U3A cells
[2] = biological target: proteins of U3A human fibrosarcoma cells (4462 proteins detected) (Homo sapiens, UniProt O75635); conditions: protein SERPINB7; U3A, 10 μM, 2 h
[3] = biological target: proteins of U3A human fibrosarcoma cells (4462 proteins detected) (Homo sapiens, UniProt Q13330); conditions: protein MTA1; U3A cells
[4] = biological target: proteins of U3A human fibrosarcoma cells (4462 proteins detected) (Homo sapiens, UniProt P14649); conditions: protein MYL6B, U3A cells
[5] = biological target: proteins of U3A human fibrosarcoma cells (4462 proteins detected) (Homo sapiens, UniProt Q4J6C6); conditions: protein PREPL, U3A cells
[6] = biological target: proteins of U3A human fibrosarcoma cells (4462 proteins detected) (Homo sapiens, UniProt P07948); conditions: protein LYN; U3A cells
[7] = biological target: proteins of U3A human fibrosarcoma cells (4462 proteins detected) (Homo sapiens, UniProt O14964); conditions: protein HGS; U3A cells
[8] = biological target: proteins of U3A human fibrosarcoma cells (4462 proteins detected) (Homo sapiens, UniProt P23396); conditions: protein RPS3; soluble abundance after heat, U3A cells
[9] = biological target: proteins of U3A human fibrosarcoma cells (4462 proteins detected) (Homo sapiens, UniProt Q8N9T8); conditions: protein KRI1; soluble abundance after heat, U3A cells
[10] = biological target: proteins of U3A human fibrosarcoma cells (4462 proteins detected) (Homo sapiens, UniProt Q9UMX5); conditions: protein NENF, U3A cells
[11] = biological target: proteins of U3A human fibrosarcoma cells (4462 proteins detected) (Homo sapiens, UniProt P26440); conditions: protein IVD, U3A cells
[12] = biological target: proteins of U3A human fibrosarcoma cells (4462 proteins detected) (Homo sapiens, UniProt Q9NWT1); conditions: protein PAK1IP1; U3A cells
[13] = biological target: proteins of U3A human fibrosarcoma cells (4462 proteins detected) (Homo sapiens, UniProt Q15397); conditions: protein KIAA0020; U3A cells
[14] = biological target: proteins of U3A human fibrosarcoma cells (4462 proteins detected) (Homo sapiens, UniProt P61923); conditions: protein COPZ1; U3A cells
[15] = biological target: proteins of U3A human fibrosarcoma cells (4462 proteins detected) (Homo sapiens, UniProt Q8TDD1); conditions: protein DDX54; U3A, 10 μM, 2 h
[16] = biological target: proteins of U3A human fibrosarcoma cells (4462 proteins detected) (Homo sapiens, UniProt Q6GYQ0); conditions: protein RALGAPA1; U3A, 10 μM, 2 h
[17] = biological target: proteins of U3A human fibrosarcoma cells (4462 proteins detected) (Homo sapiens, UniProt P62847); conditions: protein RPS24, U3A cells
[18] = biological target: proteins of U3A human fibrosarcoma cells (4462 proteins detected) (Homo sapiens, UniProt O75459); conditions: protein PAGE1, U3A cells
[19] = biological target: proteins of U3A human fibrosarcoma cells (4462 proteins detected) (Homo sapiens, UniProt P49459); conditions: protein UBE2A, U3A cells
[20] = biological target: proteins of U3A human fibrosarcoma cells (4462 proteins detected) (Homo sapiens, UniProt Q15269); conditions: protein PWP2; U3A cells
[21] = biological target: proteins of U3A human fibrosarcoma cells (4462 proteins detected) (Homo sapiens, UniProt O60291); conditions: protein MGRN1; U3A, 10 μM, 2 h
[22] = biological target: proteins of U3A human fibrosarcoma cells (4462 proteins detected) (Homo sapiens, UniProt Q99832); conditions: protein CCT7; U3A cells
[23] = biological target: proteins of U3A human fibrosarcoma cells (4462 proteins detected) (Homo sapiens, UniProt O95372); conditions: protein LYPLA2; soluble abundance after heat, U3A cells
[24] = biological target: proteins of U3A human fibrosarcoma cells (4462 proteins detected) (Homo sapiens, UniProt Q5PSV4); conditions: protein BRMS1L, U3A cells
[25] = biological target: proteins of U3A human fibrosarcoma cells (4462 proteins detected) (Homo sapiens, UniProt Q9BZE1); conditions: protein MRPL37; U3A, 10 μM, 2 h
[26] = biological target: proteins of U3A human fibrosarcoma cells (4462 proteins detected) (Homo sapiens, UniProt Q9UK53); conditions: protein ING1; U3A, 10 μM, 2 h
[27] = biological target: proteins of U3A human fibrosarcoma cells (4462 proteins detected) (Homo sapiens, UniProt Q6P3W2); conditions: protein DNAJC24; ZCSL3, U3A cells
[28] = biological target: proteins of U3A human fibrosarcoma cells (4462 proteins detected) (Homo sapiens, UniProt Q9Y3B4); conditions: protein SF3B6; soluble abundance after heat, U3A cells
[29] = biological target: proteins of U3A human fibrosarcoma cells (4462 proteins detected) (Homo sapiens, UniProt P07910); conditions: protein HNRNPC; U3A, 10 μM, 2 h
[30] = biological target: proteins of U3A human fibrosarcoma cells (4462 proteins detected) (Homo sapiens, UniProt P17252); conditions: protein PRKCA; U3A cells

proteins of U3A human fibrosarcoma cells (4462 proteins detected) (Homo sapiens, UniProt P14649), sequence (P14649 whole entry): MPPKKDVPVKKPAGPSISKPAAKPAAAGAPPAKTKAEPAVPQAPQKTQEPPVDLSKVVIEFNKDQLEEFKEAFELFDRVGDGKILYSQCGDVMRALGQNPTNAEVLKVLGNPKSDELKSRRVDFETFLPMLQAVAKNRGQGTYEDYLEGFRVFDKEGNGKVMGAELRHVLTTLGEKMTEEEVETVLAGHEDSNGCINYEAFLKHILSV
proteins of U3A human fibrosarcoma cells (4462 proteins detected) (Homo sapiens, UniProt P26440), sequence (P26440 33-426): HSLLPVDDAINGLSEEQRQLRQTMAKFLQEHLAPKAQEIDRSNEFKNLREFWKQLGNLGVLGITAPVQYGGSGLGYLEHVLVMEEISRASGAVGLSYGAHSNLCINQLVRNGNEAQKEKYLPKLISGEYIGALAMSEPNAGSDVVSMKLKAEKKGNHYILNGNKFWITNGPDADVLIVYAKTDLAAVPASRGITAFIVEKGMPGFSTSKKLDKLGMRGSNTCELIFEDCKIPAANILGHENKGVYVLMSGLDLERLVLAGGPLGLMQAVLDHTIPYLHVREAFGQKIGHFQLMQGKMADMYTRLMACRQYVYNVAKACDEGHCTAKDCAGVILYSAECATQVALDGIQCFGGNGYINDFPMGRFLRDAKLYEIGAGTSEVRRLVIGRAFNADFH
proteins of U3A human fibrosarcoma cells (4462 proteins detected) (Homo sapiens, UniProt P07948), sequence (P07948 whole entry): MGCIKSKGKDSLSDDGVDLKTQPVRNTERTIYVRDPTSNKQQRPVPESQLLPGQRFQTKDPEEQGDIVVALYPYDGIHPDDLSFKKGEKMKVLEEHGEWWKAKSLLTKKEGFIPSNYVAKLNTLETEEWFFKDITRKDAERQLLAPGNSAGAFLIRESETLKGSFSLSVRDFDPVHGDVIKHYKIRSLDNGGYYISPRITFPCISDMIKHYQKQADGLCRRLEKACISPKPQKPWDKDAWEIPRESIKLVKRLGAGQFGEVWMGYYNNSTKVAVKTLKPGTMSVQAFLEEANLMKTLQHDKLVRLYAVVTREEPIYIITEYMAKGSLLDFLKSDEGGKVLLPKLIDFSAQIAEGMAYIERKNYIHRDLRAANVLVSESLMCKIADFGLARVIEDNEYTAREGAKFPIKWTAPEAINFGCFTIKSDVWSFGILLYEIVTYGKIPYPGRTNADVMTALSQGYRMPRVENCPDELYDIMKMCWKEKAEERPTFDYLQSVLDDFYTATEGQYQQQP
proteins of U3A human fibrosarcoma cells (4462 proteins detected) (Homo sapiens, UniProt Q4J6C6), sequence (Q4J6C6 whole entry): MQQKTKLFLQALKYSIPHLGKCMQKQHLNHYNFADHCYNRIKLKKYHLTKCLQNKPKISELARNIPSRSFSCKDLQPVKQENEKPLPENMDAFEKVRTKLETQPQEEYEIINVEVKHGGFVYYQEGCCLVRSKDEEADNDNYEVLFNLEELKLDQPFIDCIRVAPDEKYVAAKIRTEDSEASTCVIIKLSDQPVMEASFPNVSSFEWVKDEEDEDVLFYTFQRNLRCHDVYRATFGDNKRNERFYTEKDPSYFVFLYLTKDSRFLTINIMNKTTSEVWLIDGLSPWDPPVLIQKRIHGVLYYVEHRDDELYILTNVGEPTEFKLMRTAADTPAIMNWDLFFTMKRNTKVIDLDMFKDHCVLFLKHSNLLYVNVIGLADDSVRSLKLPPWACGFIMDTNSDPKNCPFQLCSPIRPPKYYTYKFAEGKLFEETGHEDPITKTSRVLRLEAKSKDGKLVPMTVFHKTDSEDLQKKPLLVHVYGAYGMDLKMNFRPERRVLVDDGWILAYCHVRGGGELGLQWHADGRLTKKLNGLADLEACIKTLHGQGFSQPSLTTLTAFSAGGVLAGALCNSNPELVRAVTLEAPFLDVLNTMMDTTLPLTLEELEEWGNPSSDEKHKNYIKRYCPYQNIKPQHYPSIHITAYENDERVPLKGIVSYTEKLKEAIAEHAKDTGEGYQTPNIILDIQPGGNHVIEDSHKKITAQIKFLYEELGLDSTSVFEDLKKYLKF
proteins of U3A human fibrosarcoma cells (4462 proteins detected) (Homo sapiens, UniProt P49459), sequence (P49459 whole entry): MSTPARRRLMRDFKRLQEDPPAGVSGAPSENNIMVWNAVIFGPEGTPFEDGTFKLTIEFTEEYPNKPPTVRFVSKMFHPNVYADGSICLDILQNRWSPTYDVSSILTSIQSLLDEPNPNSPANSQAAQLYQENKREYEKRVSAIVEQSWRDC
proteins of U3A human fibrosarcoma cells (4462 proteins detected) (Homo sapiens, UniProt O75459), sequence (O75459 whole entry): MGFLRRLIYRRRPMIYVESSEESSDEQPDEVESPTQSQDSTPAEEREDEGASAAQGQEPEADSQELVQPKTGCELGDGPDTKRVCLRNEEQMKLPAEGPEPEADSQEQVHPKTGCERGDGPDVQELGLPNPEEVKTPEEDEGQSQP
proteins of U3A human fibrosarcoma cells (4462 proteins detected) (Homo sapiens, UniProt O75635), sequence (O75635 whole entry): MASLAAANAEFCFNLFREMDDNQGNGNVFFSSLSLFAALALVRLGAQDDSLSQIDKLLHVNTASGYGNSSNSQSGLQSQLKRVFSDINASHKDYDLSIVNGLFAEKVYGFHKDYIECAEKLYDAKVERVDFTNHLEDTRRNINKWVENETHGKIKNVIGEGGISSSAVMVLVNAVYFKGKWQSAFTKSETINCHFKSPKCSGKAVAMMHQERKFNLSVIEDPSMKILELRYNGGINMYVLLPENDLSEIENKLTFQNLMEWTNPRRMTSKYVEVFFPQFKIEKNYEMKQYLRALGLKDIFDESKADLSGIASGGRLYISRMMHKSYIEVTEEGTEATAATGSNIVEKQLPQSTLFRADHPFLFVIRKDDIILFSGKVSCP
proteins of U3A human fibrosarcoma cells (4462 proteins detected) (Homo sapiens, UniProt Q9Y3B4), sequence (Q9Y3B4 whole entry): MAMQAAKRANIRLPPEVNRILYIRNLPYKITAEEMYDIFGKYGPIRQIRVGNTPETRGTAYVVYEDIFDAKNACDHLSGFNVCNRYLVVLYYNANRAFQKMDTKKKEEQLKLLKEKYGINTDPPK
proteins of U3A human fibrosarcoma cells (4462 proteins detected) (Homo sapiens, UniProt O14964), sequence (O14964 whole entry): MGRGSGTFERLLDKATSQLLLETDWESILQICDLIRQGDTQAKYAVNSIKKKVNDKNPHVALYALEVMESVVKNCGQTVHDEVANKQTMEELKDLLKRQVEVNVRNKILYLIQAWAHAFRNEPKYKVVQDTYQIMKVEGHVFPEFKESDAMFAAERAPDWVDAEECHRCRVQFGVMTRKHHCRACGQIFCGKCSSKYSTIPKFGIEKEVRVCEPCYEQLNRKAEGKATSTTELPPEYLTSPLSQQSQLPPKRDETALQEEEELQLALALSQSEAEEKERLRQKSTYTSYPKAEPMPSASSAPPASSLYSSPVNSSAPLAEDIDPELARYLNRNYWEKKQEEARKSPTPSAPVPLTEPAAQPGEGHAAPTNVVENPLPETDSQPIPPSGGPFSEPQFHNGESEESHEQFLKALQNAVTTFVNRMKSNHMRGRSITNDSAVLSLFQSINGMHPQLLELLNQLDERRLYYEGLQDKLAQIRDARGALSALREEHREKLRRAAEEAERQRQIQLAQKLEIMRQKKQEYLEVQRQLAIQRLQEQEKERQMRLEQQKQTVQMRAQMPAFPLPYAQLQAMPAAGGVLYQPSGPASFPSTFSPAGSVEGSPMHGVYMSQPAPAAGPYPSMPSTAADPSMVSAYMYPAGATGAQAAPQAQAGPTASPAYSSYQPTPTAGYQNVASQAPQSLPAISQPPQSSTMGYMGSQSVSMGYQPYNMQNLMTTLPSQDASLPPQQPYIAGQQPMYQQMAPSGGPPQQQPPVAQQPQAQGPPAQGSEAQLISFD
proteins of U3A human fibrosarcoma cells (4462 proteins detected) (Homo sapiens, UniProt P61923), sequence (P61923 whole entry): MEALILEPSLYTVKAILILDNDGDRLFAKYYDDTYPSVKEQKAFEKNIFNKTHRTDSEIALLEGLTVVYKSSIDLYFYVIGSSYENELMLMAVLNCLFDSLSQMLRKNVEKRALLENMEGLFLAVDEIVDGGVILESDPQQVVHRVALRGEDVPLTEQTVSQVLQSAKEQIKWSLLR
proteins of U3A human fibrosarcoma cells (4462 proteins detected) (Homo sapiens, UniProt P07910), sequence (P07910 whole entry): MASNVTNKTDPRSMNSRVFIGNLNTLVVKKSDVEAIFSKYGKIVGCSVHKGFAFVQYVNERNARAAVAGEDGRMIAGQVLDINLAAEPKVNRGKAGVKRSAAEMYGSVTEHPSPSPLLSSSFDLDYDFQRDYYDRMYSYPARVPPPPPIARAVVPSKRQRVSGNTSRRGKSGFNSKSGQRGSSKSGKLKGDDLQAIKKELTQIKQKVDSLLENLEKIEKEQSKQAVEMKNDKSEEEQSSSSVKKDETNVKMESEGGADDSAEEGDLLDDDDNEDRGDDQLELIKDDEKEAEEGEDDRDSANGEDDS
proteins of U3A human fibrosarcoma cells (4462 proteins detected) (Homo sapiens, UniProt O95372), sequence (O95372 whole entry): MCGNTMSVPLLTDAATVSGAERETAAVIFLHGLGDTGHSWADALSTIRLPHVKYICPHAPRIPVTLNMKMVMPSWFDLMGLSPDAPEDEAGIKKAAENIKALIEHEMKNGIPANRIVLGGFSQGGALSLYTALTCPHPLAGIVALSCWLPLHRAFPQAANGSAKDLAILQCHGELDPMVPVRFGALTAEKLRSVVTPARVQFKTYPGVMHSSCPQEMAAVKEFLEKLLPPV

CCc1nc(N)nc(N)c1-c1ccc(Cl)cc1 [pyrimethamine]
Log2 (PYR/DMSO) [1]: 0.18
Log2 (PYR/DMSO), SERPINB7 [2]: -0.19
Log2 (PYR/DMSO) [3]: 0.16
Log2 (PYR/DMSO) [4]: -0.04
Log2 (PYR/DMSO) [5]: -0.04
Log2 (PYR/DMSO) [6]: 0.16
Log2 (PYR/DMSO) [7]: 0.16
Log2 (PYR/DMSO) [8]: 0.13
Log2 (PYR/DMSO) [9]: 0.14
Log2 (PYR/DMSO) [10]: -0.04
Log2 (PYR/DMSO) [11]: -0.05
Log2 (PYR/DMSO) [12]: 0.18
Log2 (PYR/DMSO) [13]: 0.18
Log2 (PYR/DMSO) [14]: 0.18
Log2 (PYR/DMSO), DDX54 [15]: 0.25
Log2 (PYR/DMSO), RALGAPA1 [16]: -0.50
Log2 (PYR/DMSO) [17]: -0.04
Log2 (PYR/DMSO) [18]: -0.04
Log2 (PYR/DMSO) [19]: -0.04
Log2 (PYR/DMSO) [20]: 0.18
Log2 (PYR/DMSO), MGRN1 [21]: -0.25
Log2 (PYR/DMSO) [22]: 0.18
Log2 (PYR/DMSO) [23]: 0.15
Log2 (PYR/DMSO) [24]: -0.04
Log2 (PYR/DMSO), MRPL37 [25]: 0.29
Log2 (PYR/DMSO), ING1 [26]: -0.22
Log2 (PYR/DMSO) [27]: -0.04
Log2 (PYR/DMSO) [28]: 0.14
Log2 (PYR/DMSO), HNRNPC [29]: 0.27
Log2 (PYR/DMSO) [30]: 0.16
